The source of these data is publication PMC4029899 (Clinical pharmacology and therapeutics, 2014).

What is called Cmax is the peak of the concentration-time curve. By half-life is commonly meant how long it takes for the measured level to halve. Read a high half-life as slow decline. Broadly, the LogP is a log measure of how a compound divides between an organic and an aqueous phase. As usually defined, the EC50 is the concentration at which the effect is half-maximal. As a reminder, the Ki is a dissociation constant, usually derived from enzyme kinetics or from competition with a known ligand.

The conditions of data set [1]: cited from earlier work; for CLpo: calculated from reported CLiv and bioavailability.
For data set [2] the following is noted: parameter used for simulations; ref SimCYP compound library; cited from earlier work.
For data set [3] the following is noted: cited from earlier work.
The target in data set [4] is T1, CYP2C19 (Homo sapiens, UniProt P33261). Description: Clinical cocktail DDI study with fluoxetine, omeprazole probe. The data set is classed as in vivo. The note with it: for Cmax / half-life: both, human, plasma, oral; for half-life: probe omeprazole.
Data set [5] deals with CYP2C19. The data set is described as above. The data set is classed as in vivo, human. The conditions noted are these: human, plasma, oral.
The subject of data set [6] is Caco-2. The note with it: ADAM model input; cited from earlier work.
Data set [7] has as its target CYP3A4 (Homo sapiens, UniProt P08684). The conditions noted are these: parameter used for simulations; ref SimCYP compound library; cited from earlier work.
The nature of data set [8]: Drug specific pharmacokinetic parameters used for simulations. The format is in vivo, human.
Data set [9] addresses T1, CYP2C19. The conditions noted are these: from AUC ratio in CYP2C19 poor and extensive metabolizers; cited from earlier work.
Data set [10] deals with T2, CYP2D6 (Homo sapiens, UniProt P10635). In words: Static DDI risk prediction, unbound [I]/Ki.
The test system of data set [11] is CYP3A4 mRNA. Description: CYP3A4 mRNA induction in cryopreserved human hepatocytes. The format is cell-based.
In data set [12] the target is T2, CYP2D6. In words: Reversible CYP2D6 inhibition. The format is biochemical.
[13] abbreviates: parameter used for simulations, ref SimCYP compound library.
The mark [14] stands for this setting: estimated to achieve desired distribution kinetics.

Molecules are shown by their SMILES. Like-named read-outs stand apart in the source and are kept apart here. Marks after values point to notes of the source that are not given here.

T1 sequence (P33261 whole entry): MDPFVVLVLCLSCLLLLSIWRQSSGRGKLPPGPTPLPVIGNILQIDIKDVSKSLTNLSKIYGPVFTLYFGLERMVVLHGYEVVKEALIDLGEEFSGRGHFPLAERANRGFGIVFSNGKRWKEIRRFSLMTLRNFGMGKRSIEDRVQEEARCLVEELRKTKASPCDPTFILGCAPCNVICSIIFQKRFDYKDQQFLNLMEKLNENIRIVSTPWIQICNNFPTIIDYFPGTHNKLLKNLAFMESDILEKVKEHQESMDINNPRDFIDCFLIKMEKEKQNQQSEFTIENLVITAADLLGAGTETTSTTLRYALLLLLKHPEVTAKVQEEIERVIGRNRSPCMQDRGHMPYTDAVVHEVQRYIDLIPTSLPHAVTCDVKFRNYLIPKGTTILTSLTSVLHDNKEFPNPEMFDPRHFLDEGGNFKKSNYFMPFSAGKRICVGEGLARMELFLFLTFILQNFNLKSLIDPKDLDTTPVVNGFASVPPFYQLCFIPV
T2 sequence (P10635 whole entry): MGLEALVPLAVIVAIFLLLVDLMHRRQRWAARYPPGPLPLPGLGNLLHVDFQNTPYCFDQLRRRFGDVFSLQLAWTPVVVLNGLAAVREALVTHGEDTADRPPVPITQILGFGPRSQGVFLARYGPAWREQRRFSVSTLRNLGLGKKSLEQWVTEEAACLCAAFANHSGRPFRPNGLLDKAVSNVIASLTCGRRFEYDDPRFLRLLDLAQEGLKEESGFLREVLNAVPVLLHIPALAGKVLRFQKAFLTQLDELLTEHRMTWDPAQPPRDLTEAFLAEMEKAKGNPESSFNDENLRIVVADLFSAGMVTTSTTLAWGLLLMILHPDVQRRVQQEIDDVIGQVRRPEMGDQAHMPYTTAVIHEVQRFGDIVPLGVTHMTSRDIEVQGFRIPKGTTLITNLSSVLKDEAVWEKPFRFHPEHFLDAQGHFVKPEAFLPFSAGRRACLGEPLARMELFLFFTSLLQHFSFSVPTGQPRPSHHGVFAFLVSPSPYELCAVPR
CYP3A4, sequence (P08684 whole entry): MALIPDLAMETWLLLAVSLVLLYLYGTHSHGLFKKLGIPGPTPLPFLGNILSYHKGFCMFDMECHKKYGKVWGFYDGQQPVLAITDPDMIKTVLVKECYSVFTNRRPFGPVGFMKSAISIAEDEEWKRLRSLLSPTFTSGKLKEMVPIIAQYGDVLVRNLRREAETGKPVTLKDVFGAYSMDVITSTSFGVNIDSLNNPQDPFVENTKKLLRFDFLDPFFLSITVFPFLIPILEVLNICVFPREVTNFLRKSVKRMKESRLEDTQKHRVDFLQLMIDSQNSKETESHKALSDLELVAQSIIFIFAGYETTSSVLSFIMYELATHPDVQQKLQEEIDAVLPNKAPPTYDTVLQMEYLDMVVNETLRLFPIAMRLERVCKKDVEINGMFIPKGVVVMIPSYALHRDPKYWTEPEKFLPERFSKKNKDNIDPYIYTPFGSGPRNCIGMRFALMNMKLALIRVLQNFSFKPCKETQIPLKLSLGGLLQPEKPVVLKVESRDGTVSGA

Take `COc1ccc2[nH]c([S+]([O-])Cc3ncc(C)c(OC)c3C)nc2c1` (stereo not drawn) [Omeprazole]: the CLpo in [1] is 80 ^b L/hr. In addition, in data set [1] (listed as omeprazole), the CLpo is 80 L/h. Also, the CLr in data set [1] (setting [13]) is 0.037 L/h. The Vss in data set [1] (previously reported) was 0.24 ^b L/kg. For the same compound, the fu in data set [2] is given as 0.043. The intrinsic solubility in data set [3] (ADAM model input) is 250 µg/mL. Also, in [4] (after 12 days of fluoxetine), the “decrease in oral CL” value came to 86%. The “change in t1/2” value in [4] (after fluoxetine) is given as “unchanged”. In [4] (after fluoxetine dosing), the “increase in AUC0-∞ compared to control” value came to 7.1 fold. In [4], the concentration peaked (Cmax) at 2500 ± 1400 nM and the half-life is 1.3 ± 0.1 h. In data set [4] (20 mg), this compound had a maximum concentration (Cmax) of 660 ± 380 nM and a half-life of 1.2 ± 0.5 h. In data set [4] (fluoxetine administration day), the “omeprazole concentrations, other subjects” value worked out at 2800 ± 1200 nM. The “omeprazole concentrations, excluded outlier subject” value in [4] (fluoxetine administration day, except 12-hour sample) was less than 4 nM. In addition, the concentration at 12 h in data set [5] was found to be 34 nM. Moreover, the Caco-2 permeability in data set [6] was 26.2*10^−06 cm/s. The “fm CYP3A4” value in [7] is listed as 0.07. In addition, in [8] (setting [14]), the Vsac was 0.1 L/kg and the “Vsac Q” value is 10 L/h. Also, in [9], the “fm CYP2C19” value is given as 0.93 ^e.
In the case of `NCC[C@H](Oc1ccc(C(F)(F)F)cc1)c1ccccc1` [(S)-norfluoxetine], the “predicted share of the in vivo CYP2D6 inhibition” value in data set [10] is listed as approximately 40%. Also, the fu in [2] is listed as 0.13. Moreover, in [3] (setting [13]), the LogP is given as 3.8 and the “pKa 1” value was 9. In addition, the “Imax, CYP3A4 mRNA induction” value in data set [11] (hepatocytes from three donors) is 2.6 fold. The compound also yielded an EC50 at 48 h in data set [11] (human, cryopreserved human hepatocytes) of 3900 nM. Moreover, the “CYP3A4 Emax” value in data set [11] (mRNA induction, not scaled to Rifampin) stood at 2.6. This compound came in with a Ki in data set [12] of 35 nM. The CLIV in data set [8] (estimated to reflect the reported t1/2 following a single oral dose) was 5.8 L/h.
